In EP0810245A1, “Catalyst for low temperature cure of blocked isocyanates” (ELF ATOCHEM NORTH AMERICA, INC., priority 1996, dated 1997):

Columns and labels:
[1] = Gel time by Brookfield viscosity (time to 2500 cps), masterbatch of Examples 1-8 and A-J; parameters: key to Gel Time @250F (120C): minutes to reach target viscosity (gel time); GEL TIME @ 130°C: unit: min; conditions: for GEL TIME @ 130°C: 0.16%Sn, time to reach 2500 cps (gel times in mins)
Experimental: (§1) Solids content was maintained between 50-60%.
(§2) Comparison of catalyst activity was determined by monitoring viscosity as a function of cure time. A Brookfield viscometer fitted with a heated cell was connected to a strip chart recorder. A 10 gram aliquot of the formulation with the desired catalyst was placed in the chamber and rapidly heated to the test temperature. A #27 speed spindle was immersed into the solution and the initial viscosity measured. The rate of increase in viscosity was monitored until a viscosity of 2500 cps was achieved. In almost all the examples the formulation gelled at this viscosity. The time required to reach this viscosity was termed "gel time" at the test temperature. This technique provides information on the time required to reach a target viscosity and on the rate of increase in viscosity for a given system and compares the relative reactivity of different catalysts in a specific formulation at the same temperature. Variability in gel time is +/- 0.5-1.0 mins and is limited by the accuracy of weighing of the catalyst. […] Gel time measurements were then correlated with film properties.
The components were stirred to ensure complete solubility, usually from 2 to 4 hours. • Desmophen A565 (215g, 42.9 wt%) • Desmodur BL 3175 A (140g, 27.9 wt%) • methyl amyl ketone (58.5g, 11.7 wt%) • methy isobutyl ketone (58.5g, 11.7 wt%) • propylene glycol methyl ether acetate (29.0g, 5.8 wt%)
(§3) For each evaluation, a 10g aliquot of this master batch was removed and the appropriate catalyst added.

[2] = Gel time by Brookfield viscosity (time to 2500 cps), masterbatch of Examples 9-12 and K, Zn salts as co-catalysts; conditions: 0.16 %Sn, co-catalyst 0.07 %Zn where used
Experimental: as §1, §2
In comparative example K and operative examples 9 to 12 a masterbatch of the following mixture was prepared. The components were stirred to ensure complete solubility, usually from 2 to 4 hours. • Desmophen A565 215g • Desmodur BL 3175 A 140g • Methyl isobutyl ketone 146.4g
as §3

Molecule | Gel Time @250F (120C) ([1]; 0.16 %Sn) | Gel Time @266F (130C) ([1]; 0.16 %Sn) [min] | GEL TIME @ 130°C [1] | Gel Time @250F (120C) ([1]; 0.20 %Sn) | Gel Time @ 120°C [2] [min] | Gel Time @ 125°C [2] [min] | Gel Time @266F (130C) ([1]; 0.20 %Sn) [min]
CCC[CH2][Sn]([CH2]CCC)([O]C(C)=O)[O][Sn]([CH2]CCC)([CH2]CCC)[O]C(C)=O [D, Dibutyl Diacetoxy Stannox n=0, reference compound] | 38 | 18.6 | 18.6 | – | – | – | –
Dibutyl Diacetoxy Stannox n=3 [Example 1] | 36.1 | 17.2 | 17.2 | – | – | – | –
CCC[CH2][Sn](=[O])[CH2]CCC [C, Dibutyl Sn Oxide, reference compound] | – | 23.2 | 23.2 | – | – | – | –
Dibutyl Diformyloxy Stannox (n=6) [Example 5] | – | – | – | 25.6 | – | – | –
CCC[CH2][Sn]([CH2]CCC)([O]C(C)=O)[O]C(C)=O [B, Dibutyl Sn Diacetate, reference compound] | 45 | 21.3 | 21.2 | – | – | – | –
Dibutyl Di Octylmaleate Stannox n=6 [Example 3] | – | – | 20.4 | – | – | – | –
Dibutyl Diacetoxy Stannox n=6 [Example 2] | 32.5 | 16.5 | 16.4 | – | – | – | –
Dibutyl Diformyloxy Stannox (n=14) [Example 6] | – | – | – | 24.1 | 29 | 19 | 14.4
CCCCCCCCCCCC(=O)[O][Sn]([CH2]CCC)([CH2]CCC)[O]C(=O)CCCCCCCCCCC [A, Dibutyl Sn Dilaurate, reference compound] | – | – | 22.2 | 48.7 | 45 | 29 | –
Dibutyl Diformyloxy Stannox (n=3) [Example 4] | – | – | – | 27.5 | – | – | 15.9
